Test in all cases: SPR steady-state affinity
Holding throughout (format): binding

Experiment [1] has as its target T1, LYCHOS (GPR155) (Homo sapiens, UniProt Q7Z3F1, A148W).
T1 sequence (Q7Z3F1 1-870 A148W): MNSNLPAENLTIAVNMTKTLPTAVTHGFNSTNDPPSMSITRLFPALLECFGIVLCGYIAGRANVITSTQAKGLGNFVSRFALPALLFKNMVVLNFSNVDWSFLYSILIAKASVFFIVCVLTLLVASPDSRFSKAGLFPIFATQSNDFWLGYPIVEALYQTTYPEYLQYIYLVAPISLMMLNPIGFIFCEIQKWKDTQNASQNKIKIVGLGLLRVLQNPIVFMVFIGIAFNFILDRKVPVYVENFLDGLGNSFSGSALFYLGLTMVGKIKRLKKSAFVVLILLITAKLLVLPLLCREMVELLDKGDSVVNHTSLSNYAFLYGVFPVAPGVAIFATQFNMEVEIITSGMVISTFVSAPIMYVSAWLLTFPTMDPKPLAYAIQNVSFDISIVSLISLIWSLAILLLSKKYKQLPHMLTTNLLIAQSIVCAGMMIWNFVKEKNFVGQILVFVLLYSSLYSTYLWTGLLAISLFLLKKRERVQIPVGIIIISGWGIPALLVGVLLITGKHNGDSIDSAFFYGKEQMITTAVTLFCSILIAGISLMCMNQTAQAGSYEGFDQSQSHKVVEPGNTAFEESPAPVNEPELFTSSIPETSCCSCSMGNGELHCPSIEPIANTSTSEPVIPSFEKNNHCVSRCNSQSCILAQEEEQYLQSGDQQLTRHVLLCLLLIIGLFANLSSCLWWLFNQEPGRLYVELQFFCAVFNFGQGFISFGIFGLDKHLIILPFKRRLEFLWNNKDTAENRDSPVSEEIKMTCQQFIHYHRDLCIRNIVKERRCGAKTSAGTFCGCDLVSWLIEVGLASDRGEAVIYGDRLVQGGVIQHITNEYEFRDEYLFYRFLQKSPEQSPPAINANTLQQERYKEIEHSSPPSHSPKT

Experiment [2] deals with T2, LYCHOS (GPR155) (Homo sapiens, UniProt Q7Z3F1, L177W).
T2 sequence (Q7Z3F1 1-870 L177W): T1 sequence (Q7Z3F1 1-870 A148W) with W148A, L177W

In experiment [3] the target is T3, LYCHOS (GPR155) (Homo sapiens, UniProt Q7Z3F1, N145A).
T3 sequence (Q7Z3F1 1-870 N145A): T1 sequence (Q7Z3F1 1-870 A148W) with N145A, W148A

In experiment [4] the target is T4, LYCHOS (GPR155) (Homo sapiens, UniProt Q7Z3F1).
T4 sequence (Q7Z3F1 1-870): T1 sequence (Q7Z3F1 1-870 A148W) with W148A

In general, Kd refers to a measure of binding affinity in units of concentration. Higher therefore signals lower affinity.

Substitutions are numbered along the chain they refer to.

For the molecule `O=C(O)Cc1c[nH]c2ccccc12` [IAA, Indole-3-acetic acid], the Kd at LYCHOS (GPR155) [1] was determined as 3.38 mM; at LYCHOS (GPR155) [2], 3.93 mM; at LYCHOS (GPR155) [3], 5.49 mM; at LYCHOS (GPR155) [4] it was 1.62 mM.
